The target of series [1] is T1, Voltage-gated inwardly rectifying potassium channel KCNH2 (Homo sapiens, UniProt Q12809). The series can be described thus: Displacement of [3H]astemizole from human ERG channel expressed in HEK293 cell membrane after 1 hr by scintillation counting analysis. (Displacement assays read how much labelled ligand stays bound in the presence of the test substance.)
The target of series [2] is T2, hERG (KCNH2) (Homo sapiens, UniProt Q12809). The series can be described thus: Ratio of Ki for human ERG channel expressed in HEK293 cell membrane after 1 hr by scintillation counting analysis to IC50 for human ERG channel expressed in HEK293 cells after 15 mins by whole-cell patch clamp technique. The format is cell membranes.
T2 sequence (Q12809 whole entry): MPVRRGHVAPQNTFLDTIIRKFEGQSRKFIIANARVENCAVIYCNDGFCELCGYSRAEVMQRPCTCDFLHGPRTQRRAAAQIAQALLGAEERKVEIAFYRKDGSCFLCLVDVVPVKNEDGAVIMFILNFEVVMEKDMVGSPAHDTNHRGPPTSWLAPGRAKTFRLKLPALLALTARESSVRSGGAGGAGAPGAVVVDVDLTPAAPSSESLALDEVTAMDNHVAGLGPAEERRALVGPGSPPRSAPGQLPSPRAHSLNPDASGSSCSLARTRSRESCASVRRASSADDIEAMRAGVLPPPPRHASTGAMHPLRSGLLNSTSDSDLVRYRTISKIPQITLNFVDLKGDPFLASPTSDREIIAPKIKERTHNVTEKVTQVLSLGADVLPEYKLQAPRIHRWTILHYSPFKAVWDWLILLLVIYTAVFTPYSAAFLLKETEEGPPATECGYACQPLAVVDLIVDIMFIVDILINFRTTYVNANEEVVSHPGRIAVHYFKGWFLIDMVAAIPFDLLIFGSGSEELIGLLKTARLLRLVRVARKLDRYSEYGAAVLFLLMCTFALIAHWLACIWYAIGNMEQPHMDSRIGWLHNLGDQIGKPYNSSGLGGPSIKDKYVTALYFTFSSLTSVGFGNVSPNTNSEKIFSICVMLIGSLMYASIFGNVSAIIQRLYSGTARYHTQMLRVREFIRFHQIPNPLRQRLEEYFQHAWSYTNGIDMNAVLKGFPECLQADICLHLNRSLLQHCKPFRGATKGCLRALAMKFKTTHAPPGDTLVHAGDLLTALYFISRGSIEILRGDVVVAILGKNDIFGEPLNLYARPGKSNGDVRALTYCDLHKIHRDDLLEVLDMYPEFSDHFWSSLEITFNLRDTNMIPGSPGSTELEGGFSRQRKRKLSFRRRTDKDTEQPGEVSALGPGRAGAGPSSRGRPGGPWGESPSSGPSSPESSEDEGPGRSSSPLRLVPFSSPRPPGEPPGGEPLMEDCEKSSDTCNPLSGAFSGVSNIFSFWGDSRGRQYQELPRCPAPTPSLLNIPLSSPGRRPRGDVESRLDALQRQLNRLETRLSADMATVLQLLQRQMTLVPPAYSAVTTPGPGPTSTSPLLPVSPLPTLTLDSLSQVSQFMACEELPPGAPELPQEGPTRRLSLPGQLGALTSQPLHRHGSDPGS
Series [3] concerns the target T1, Voltage-gated inwardly rectifying potassium channel KCNH2. The series can be described thus: Inhibition of human ERG channel expressed in HEK293 cells after 15 mins by whole-cell patch clamp technique. The format is cell-based. (In general: Patch clamp records ionic current or voltage across a cell membrane.)
The target in series [4] is T2, hERG (KCNH2). The series can be described thus: Displacement of [3H]astemizole from human ERG channel expressed in HEK293 cell membrane at 10 uM after 1 hr by scintillation counting analysis. The settings on record: membranes of HEK293 cells that express hERG, probe [3H]astemizole.

T1 sequence (Q12809 whole entry): as above

Consider `CCCCCCCN(CC)C/C=C/c1ccc(Cl)cc1`, for which the IC50 (usually the concentration that inhibits the measured activity by half) in series [1] turned out to be 243 nM.
Same read-out and setting: the figure for `CCCCN(CC)CC#CCOCc1ccc(Cl)cc1` is 7370 nM; for `CCCCCCCN(CC)CC#Cc1ccc(Cl)cc1` it is 4080 nM.
In series [1], `CCCCCCCN1CCC(C(=O)c2ccccc2)CC1` showed an IC50 of 124 nM.
As for `CCCCN(CC)C/C=C/c1ccc(Cl)cc1`, in series [1], the IC50 came out at 1050 nM.
On the same count and under the same terms, the figure for `CCCCCCCN(CC)CC#CCOC(c1ccccc1)c1ccccc1` is 970 nM; for `CCCCCCCN(CC)C/C=C/CCc1ccc(Cl)cc1` it is 238 nM.
As for `CCCCCCCN(CC)CC#CCCc1ccc(Cl)cc1`, the IC50 turned out to be 765 nM in series [1] and 53 nM in series [3]. Further, affinity in series [1] was put at a Ki of 148 nM. For the same compound, the selectivity ratio at hERG (KCNH2) [2] was determined as 2.
With `CCCCCCC[N+](CC)(CC)CC#Cc1ccc(Cl)cc1`, the IC50 in series [1] came to 40 nM.
The same measure, in the same setting: the figure for `CCCCN(CC)CC#CCCc1ccc(C)cc1` is 5590 nM.
Consider `CCCCN(CC)CC#CCCc1ccccc1`, for which the inhibition – broadly, the change of the read-out against control, counted positive when it falls – at 1 h, 10 µM on hERG (KCNH2) [4] was found to be 48%.
At hERG (KCNH2) [4], `CCCCN(CC)CC#CC#Cc1ccc(C)cc1` registered an inhibition at 1 h, 10 µM of 47%.
In series [1], `CCCCCCCN(CC)CC#CCCc1ccccc1` had an IC50 of 4390 nM.

The values are drawn from ChEMBL document CHEMBL3091311, “Removal of human ether-à-go-go related gene (hERG) K+ channel affinity through rigidity: a case of clofilium analogues” (J Med Chem, 2013).
